Reference: publication PMC8843100, “Development of newly synthesised quinazolinone-based CDK2 inhibitors with potent efficacy against melanoma” (Journal of Enzyme Inhibition and Medicinal Chemistry, 2022)

Legend:
[1] = system: MDA-MB-468; assay: NCI-60 single dose screen, sulforhodamine B; type: cell-based, human; conditions: Breast cancer MDA-MB-468; single dose 10^−5 M
Procedure: (§1) In this research, all of the newly synthesised quinazolinones were subjected to in vitro anticancer screening by the National Cancer Institute (USA) against 60 different human cell lines including leukaemia, non-small cell lung cancer, colon cancer, CNS cancer, melanoma, ovarian cancer, renal cancer, prostate cancer, and breast cancer. The tested compounds were evaluated at a single dose (10^−5 M). […] Regarding the benzenesulfonamide counterparts, the introduction of an electron-withdrawing group on the benzenesulfonamide moiety increased the inhibitory activity on the glioblastoma cell line SNB-75 as depicted by the chloro derivative 5c (GI% = 63.09) which was higher than that of the unsubstituted derivative 5a (GI% = 40.06) and the methyl derivative 5b (GI% = 33.03).
(§2) 1. Cytotoxicity screening against a panel of 60 human tumor cell lines
(§3) All the compounds were selected for NCI-60 Human Tumor Cell Lines Screen by the Developmental Therapeutics Program (DTP) at the National Cancer Institute (NCI), Maryland, USA. The operation of this screen utilizes 60 different human tumor cell lines, representing leukemia, non-small-cell lung cancer, colon cancer, CNS cancer, melanoma, ovarian cancer, renal cancer, prostate cancer and breas t cancer.
(§4) The compounds were supplied as dry powder and a single concentration is tested in all 60 cell lines at a single dose of 10 µM solution in dimethyl sulfoxide (DMSO) using Sulforhodamine B assay. Briefly, cells are seeded in 96 well plates at an appropriate density and incubated for 1 day. After 1 day, some of the plates are processed to determine the density time zero. To the remaining plates, compounds are added at 10 µM concentration. Plates are incubated a further 2 days, then fixed and staine d with sulphorhodamine B. Growth inhibition is calculated relative to cells without drug treatment and the time zero control. The use of a time zero control allows the determination of cell kill as well as net growth inhibition.
(§5) 2. Detection of IC50 against MDA-MB-435, SNB-75 cell lines and normal cell line WI -38.
(§6) Antiproliferative activities of 5c in melanoma cell line MDA-MB-435, glioblastoma cell line SNB-75 and normal cell line WI -38 and that of 8a in melanoma cell line MDA-MB-435 and normal cell line WI-38 were measured spectrophotometrically using in vitro MTT based toxicology assay kit (catalog no. M -5655, M-8910) (Sigma Aldrich), according to the manufacturer’s protocol. The three examined cell lin es were obtained from American Type Culture Collection (ATCC). Briefly, cells were platted (cells density 1.2 – 1.8 × 10,000 cells/well) in a volume of 100 µl complete growth medium + 100 μl of the tested compound per well in a 96-well plate for 48 h before the MTT assay. The cultures were removed from incubator into laminar flow hood then each vial of MTT [M-5655] should be reconstituted with 3 ml of medium or balanced salt solution without phenol red and serum. Reconstituted MTT was added in an amount equal to […]

[2] = system: IGROV1; assay: NCI-60 single dose screen, sulforhodamine B; type: cell-based, human; conditions: Ovarian cancer IGROV1; single dose 10^−5 M
Procedure: as §1, §2, §3, §4, §5, §6

[3] = system: HL-60(TB); assay: NCI-60 single dose screen, sulforhodamine B; type: cell-based, human; conditions: Leukaemia HL-60(TB); single dose 10^−5 M
Procedure: as §1, §2, §3, §4, §5, §6

[4] = system: MCF7; assay: NCI-60 single dose screen, sulforhodamine B; type: cell-based, human; conditions: Breast cancer MCF7; single dose 10^−5 M
Procedure: as §1, §2, §3, §4, §5, §6

[5] = system: SK-OV-3; assay: NCI-60 single dose screen, sulforhodamine B; type: cell-based, human; conditions: Ovarian cancer SK-OV-3; single dose 10^−5 M
How it was run: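 Single dose of 10 µM (from DMSO solution) added one day after seeding; cells incubated a further 2 days, then fixed and stained with sulforhodamine B. Growth inhibition calculated against untreated cells and a time-zero control.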

[6] = system: normal fibroblast cells WI-38; assay: Cytotoxic activity in normal cells, MTT assay; type: cell-based; conditions: Homo sapiens, WI-38 normal cells, 48 h, read-out: IC50 (µM) ± SD WI-38
Procedure: as §5
as §6, with “96-well” for “96-well plate for 48 h before the MTT assay. The cultures were removed from incubator into laminar flow hood then each vial of MTT [M-5655] should be reconstituted with 3 ml of medium or balanced salt solution without phenol red and serum. Reconstituted MTT was added in an amount equal to”
(§7) salt solution without phenol red and serum.

[7] = system: glioblastoma SNB-75 cells; assay: Apoptosis determination, Annexin V-FITC/PI; type: cell-based, human; conditions: SNB-75, 24 h at IC50 concentration
Procedure: The apoptotic activity of quinazolinone 5c in melanoma MDA-MB-435 and glioblastoma SNB-75 cell lines was further studied using Annexin V-FITC assay. […]
4. Apoptosis determination
Annexin V fluorescein isothiocyanate (FITC)/PI apoptosis detection kit (BD Biosciences) was used according to the manufacturer’s instructions to measure the apoptotic activity of compound 5c. Melanoma MDA -MB-435 and glioblastoma SNB -75 cells were cultured to a monolayer then treated with the quinazolinone 5c at its IC50 concentration. The cells then were collected by trypsinisation and 0.5×10^6 cells were washed twice with PBS and stained with 5 µL Annexin V-FITC and 5 µL PI in 1Xbinding buffe r for 15 min. at room temperature in the dark.
Analyses were performed using FACS Calibur flow cytometer (BD Biosciences, San Jose, CA).

[8] = biological target: T1, CDK2 (Homo sapiens, UniProt P24941); assay: CDK2 inhibition assay, colorimetric 96-well kit (BPS Bioscience); type: biochemical; conditions: in vitro kinase inhibition; read-out: IC50 (µM) ± SD against CDK2
T1 construct: purchased BPS Bioscience 79599
Procedure: It was reported that CDK2 is overexpressed in melanoma[44]^,[45].
CDK2 enzyme inhibition activity was measured for the quinazolinones 5c and 8a using a colorimetric 96-well CDK2 assay kit (BPS Bioscience) (catalog no. 79599), according to the manufacturer's protocol. All the IC50 values were calculated using GraphPad Prism 7.0 Software.
Figure S1. The pharmacokinetic profile of compound 5c using SwissADME web server.
(1 picture or pasted object on this page, not shown here)

[9] = system: melanoma cell line MDA-MB-435; assay: Detection of IC50, MTT assay; type: cell-based; conditions: Homo sapiens, read-out: IC50 (µM)±SD, 50% inhibition of cell viability, Melanoma MDA-MB-435, 48 h
Procedure: as §5
as §6, with “96-well” for “96-well plate for 48 h before the MTT assay. The cultures were removed from incubator into laminar flow hood then each vial of MTT [M-5655] should be reconstituted with 3 ml of medium or balanced salt solution without phenol red and serum. Reconstituted MTT was added in an amount equal to”
as §7

| Structure (SMILES) | melting point [°C] | GI% at 10^−5 M [1] | GI% at 10^−5 M [2] | GI% at 10^−5 M [3] | GI% at 10^−5 M [4] | GI% at 10^−5 M [5] [%] | IC50 [6] [µM] | % Necrosis [7] [%] | %Apoptosis Early [7] [%] | %Apoptosis Late [7] [%] | %Apoptosis Total [7] [%] | IC50 [8] [µM] | IC50 [9] [µM] |
| --- | --- | --- | --- | --- | --- | --- | --- | --- | --- | --- | --- | --- | --- |
| O=C(CNn1c(COc2ccccc2)nc2ccccc2c1=O)Nc1ccccc1 [Compound 4a, 2-((4-oxo-2-(phenoxymethyl)quinazolin-3(4H)-yl)amino)-N-phenylacetamide] | 135 to 137 | – (– means GI < 10%) | 19.54% | – (– means GI < 10%) | 15.7% | – | – | – | – | – | – | – | – |
| COc1ccc(NC(=O)CNn2c(COc3ccccc3)nc3ccccc3c2=O)cc1 [Compound 4b, N-(4-methoxyphenyl)-2-((4-oxo-2-(phenoxymethyl)quinazolin-3(4H)-yl)amino)acetamide] | 146 to 148 | – (– means GI < 10%) | 6.78% | – (– means GI < 10%) | 13.20% | – | – | – | – | – | – | – | – |
| O=C(CNn1c(COc2ccccc2)nc2ccccc2c1=O)Nc1ccc(Cl)cc1 [Compound 4c, N-(4-chlorophenyl)-2-((4-oxo-2-(phenoxymethyl)quinazolin-3(4H)-yl)amino)acetamide] | 165 to 167 | 11.13% | 19.62% | – (– means GI < 10%) | 10.05% | 4.95 | – | – | – | – | – | – | – |
| O=c1c2ccccc2nc(COc2ccccc2)n1NS(=O)(=O)c1ccccc1 [Compound 5a, N-(4-oxo-2-(phenoxymethyl)quinazolin-3(4H)-yl)benzenesulfonamide] | 114 to 116 | – (– means GI < 10%) | 16.06% | – (– means GI < 10%) | 14.31% | – | – | – | – | – | – | – | – |
| Cc1ccc(S(=O)(=O)Nn2c(COc3ccccc3)nc3ccccc3c2=O)cc1 [Compound 5b, 4-methyl-N-(4-oxo-2-(phenoxymethyl)quinazolin-3(4H)-yl)benzenesulfonamide] | 140 to 142 | – (– means GI < 10%) | 21.58% | – (– means GI < 10%) | 11.54% | −4.74 | – | – | – | – | – | – | – |
| O=c1c2ccccc2nc(COc2ccccc2)n1NS(=O)(=O)c1ccc(Cl)cc1 [Compound 5c, 4-chloro-N-(4-oxo-2-(phenoxymethyl)quinazolin-3(4H)-yl)benzenesulfonamide] | 208 to 210 | 59.61% | 38.26% | 24.32% | 58.11% | – | 62.5 ± 3.5 | 8.61 | 2.65 | 32.96 | 44.22 | 0.63 ± 0.022 | 3.03 ± 0.38 |
| COc1cc(C=Nn2c(COc3ccccc3)nc3ccccc3c2=O)ccc1O [Compound 6a, 3-((4-hydroxy-3-methoxybenzylidene)amino)-2-(phenoxymethyl)quinazolin-4(3H)-one] | 191 to 193 | – (– means GI < 10%) | – (– means GI < 10%) | – (– means GI < 10%) | 22.94% | – | – | – | – | – | – | – | – |
| O=c1c2ccccc2nc(COc2ccccc2)n1N=CC=Cc1ccccc1 [Compound 6b, 2-(phenoxymethyl)-3-((3-phenylallylidene)amino)quinazolin-4(3H)-one] | 211 to 213 | 10.89% | – (– means GI < 10%) | – (– means GI < 10%) | 16.22% | – | – | – | – | – | – | – | – |
| CN1CCN(CC(=O)Nn2c(COc3ccccc3)nc3ccccc3c2=O)CC1 [Compound 8a, 2–(4-methylpiperazin-1-yl)-N-(4-oxo-2-(phenoxymethyl)quinazolin-3(4H)-yl)acetamide] | 158 to 160 | 49.06% | 26.87% | 19.74% | 57.64% | 22.99 | 37.3 ± 2.1 | – | – | – | – | 1.74 ± 0.062 | 6.22 ± 0.53 |
| O=C(CN1CCN(c2ccccc2)CC1)Nn1c(COc2ccccc2)nc2ccccc2c1=O [Compound 8b, N-(4-oxo-2-(phenoxymethyl)quinazolin-3(4H)-yl)-2–(4-phenylpiperazin-1-yl)acetamid] | 115 to 117 | – (– means GI < 10%) | – (– means GI < 10%) | – (– means GI < 10%) | – (– means GI < 10%) | – | – | – | – | – | – | – | – |
| COc1ccc(N2CCN(CC(=O)Nn3c(COc4ccccc4)nc4ccccc4c3=O)CC2)cc1 [Compound 8c, 2–(4-(4-methoxyphenyl)piperazin-1-yl)-N-(4-oxo-2-(phenoxymethyl)quinazolin-3(4H)-yl)acetamide] | 100 to 102 | – (– means GI < 10%) | – (– means GI < 10%) | – (– means GI < 10%) | – (– means GI < 10%) | – | – | – | – | – | – | – | – |
